Values quoted from earlier work as cited in patent publication US11813289B2, “Encapsulated antimicrobials and related methods of treatment” (ADVANTAGE SILVER DENTAL ARREST, LLC, priority 2018, dated 2023).

System: dentinal caries lesions
Conditions: lesions that had progressed into the dentin

silver diamine fluoride [SDF]
dentinal caries lesions arrested after treatment: two-thirds
